# Assay results reported in patent US20140107316A1, “DRUG DELIVERY CONJUGATES CONTAINING UNNATURAL AMINO ACIDS AND METHODS FOR USING” (priority 2012, published 2014).
# What was measured:
# [1] = tested on: collagen-induced arthritis; experiment: Collagen-Induced Arthritis (CIA) Model; format: in vivo, female Lewis rats; conditions: ten consecutive subcutaneous doses days 10-19; 500 nmol/kg induction, 100 nmol/kg maintenance
# Method: Collagen-Induced Arthritis (CIA) Model. The collagen-induced arthritis (CIA) was induced in female Lewis rats on folate-deficient diet (Harlan Teklad, Indianapolis, Ind.). On Day 0, rats were immunized with 500 μg of bovine collagen Type II (Chondrex, Redmond, Wash.) formulated with Freund's complete adjuvant. A booster immunization was given on Day 7 with 250 μg of the bovine collagen formulated with Freund's incomplete adjuvant. Arthritis disease was assessed by a qualitative clinical score system described by the manufacturer (Chondrex, Redmond, Wash.): 0=normal, 1=Mild, but definite redness and swelling of the ankle or wrist, or apparent redness and swelling limited to individual digits, regardless of the number of affected digits, 2=Moderate redness and swelling of ankle of wrist, 3=Severe redness and swelling of the entire paw including digits, and 4=Maximally inflamed limb with involvement of multiple joints. On Day 10 post first immunization, rats were distributed evenly (according to the arthritis score) across the control and treatment groups. The CIA rats were given ten consecutive subcutaneous doses of EC0746 and methotrexate on days 10-19. For both drugs, an induction dose (500 nmol/kg) was given on days 10 and 15 and a maintenance dose (100 nmol/kg) was given on days 11-14 and 16-19. […] The arthritis score and animal body weight were recorded five times a week.
# [2] = Plasma stability / drug release after dosing in rats; format: in vivo; conditions: after a AC dose in rats
# Source text: EC1496 releases ca. 50% less drug than the comparative example EC0746 after a AC dose in rats.
# cells in culture = experiment: Cytotoxicity to cells in culture; format: cell-based; conditions: read-out: typical IC50, cells in culture
# KB tumors = experiment: KB tumor assay in nu/nu mice; conditions: for CR (%) / Cures (%) / PR (%) / Toxicity Avg. Weight Loss / Toxicity Deaths (%): TIW, 2 weeks
# Method: Inhibition of Tumor Growth in Mice. Four to seven week-old mice (Balb/c or nu/nu strains) were purchased from Harlan Sprague Dawley, Inc. (Indianapolis, Ind.). Normal rodent chow contains a high concentration of folic acid (6 mg/kg chow); accordingly, mice used were maintained on the folate-free diet (Harlan diet #TD00434) for 1 week before tumor implantation to achieve serum folate concentrations close to the range of normal human serum. For tumor cell inoculation, 1×10^6 M109 cells (Balb/c strain) or 1×10^6 KB cells (nu/nu strain) in 100 μL were injected in the subcutis of the dorsal medial area. Tumors were measured in two perpendicular directions every 2-3 days using a caliper, and their volumes were calculated as 0.5×L×W^2, where L=measurement of longest axis in mm and W=measurement of axis perpendicular to L in mm. […] Dosing solutions were prepared fresh each day in PBS and administered through the lateral tail vein of the mice.
# General KB Tumor Assay. The anti-tumor activity of the compounds described herein, when administered intravenously (i.v.) to tumor-bearing animals, was evaluated in nu/nu mice bearing subcutaneous KB tumors. Approximately 8 days post tumor inoculation in the subcutis of the right axilla with 1×10^6 KB cells (average tumor volume at to=50-100 mm^3), in mice (5/group) were injected i.v. three times a week (TIW), for 3 weeks with […] of the drug delivery conjugate or with an equivalent dose volume of PBS (control), unless otherwise indicated. Tumor growth was measured using calipers at 2-day or 3-day intervals in each treatment group. Tumor volumes were calculated using the equation V=a×b^2/2, where “a” is the length of the tumor and “b” is the width expressed in millimeters.
# Toxicity as Measured by Weight Loss. The percentage weight change of the mice was determined in mice (5 mice/group) on selected days post-tumor inoculation (PTI), and graphed.
# In vivo activity against tumors.
structure (smiles),measurement,setting,value
CCCC(=O)OCN(C(=O)[C@@H](NC(=O)[C@H]1CCCCN1C)C(C)CC)[C@H](C[C@H](OC(C)=O)c1nc(C(=O)N[C@H](Cc2ccc(O)cc2)C[C@H](C)C(=O)NNC(=O)OCCSSC[C@H](NC(=O)[C@H](CCC(=O)NC[C@H](O)[C@@H](O)[C@H](O)[C@H](O)CO)NC(=O)[C@H](CCC(=O)O)NC(=O)[C@H](CCC(=O)NC[C@H](O)[C@@H](O)[C@H](O)[C@H](O)CO)NC(=O)[C@H](CCC(=O)O)NC(=O)[C@H](CCC(=O)NC[C@H](O)[C@@H](O)[C@H](O)[C@H](O)CO)NC(=O)CC[C@H](NC(=O)c2ccc(NCc3cnc4nc(N)[nH]c(=O)c4n3)cc2)C(=O)O)C(=O)O)cs1)C(C)C (stereo partly shown) [EC0746],effect on collagen-induced arthritis (arthritis score),[1],effective
N=c1[nH]c(N)nc2ncc(CNc3ccc(C(=O)N[C@@H](CCC(=O)NNC(=O)OCCSSC[C@@H](NC(=O)[C@H](CCC(=O)NC[C@H](O)[C@@H](O)[C@H](O)[C@H](O)CO)NC(=O)[C@@H](CCC(=O)O)NC(=O)[C@H](CCC(=O)NC[C@H](O)[C@@H](O)[C@H](O)[C@H](O)CO)NC(=O)[C@@H](CCC(=O)O)NC(=O)[C@H](CCC(=O)NC[C@H](O)[C@@H](O)[C@H](O)[C@H](O)CO)NC(=O)CC[C@@H](NC(=O)c4ccc(NCc5cnc6nc(N)[nH]c(=O)c6n5)cc4)C(=O)O)C(=O)O)C(=O)O)cc3)nc12 [EC1496],less drug released than comparative example EC0746,[2],ca. 50%
"CCCC(=O)OCN(C(=O)[C@@H](NC(=O)[C@H]1CCCCN1C)[C@@H](C)CC)[C@H](C[C@@H](OC(C)=O)c1nc(C(=O)N[C@@H](Cc2ccc(O)cc2)C[C@H](C)C(=O)O)cs1)C(C)C [Tubulysin B, tubulysin B]",IC50,cells in culture,~1 nM
same,CR (%),KB tumors; 0.1 μmol/kg (4 doses),0%
same,Cures (%),KB tumors; 0.1 μmol/kg (4 doses),0%
same,PR (%),KB tumors; 0.1 μmol/kg (4 doses),0%
same,Toxicity Avg. Weight Loss,KB tumors; 0.1 μmol/kg (4 doses),>20%
same,Toxicity Deaths (%),KB tumors; 0.1 μmol/kg (4 doses),100%
same,CR (%),KB tumors; 0.2 μmol/kg (3 doses),0%
same,Cures (%),KB tumors; 0.2 μmol/kg (3 doses),0%
same,PR (%),KB tumors; 0.2 μmol/kg (3 doses),0%
same,Toxicity Avg. Weight Loss,KB tumors; 0.2 μmol/kg (3 doses),>18%
same,Toxicity Deaths (%),KB tumors; 0.2 μmol/kg (3 doses),100%
same,CR (%),KB tumors; 0.5 μmol/kg (1 dose),0%
same,Cures (%),KB tumors; 0.5 μmol/kg (1 dose),0%
same,PR (%),KB tumors; 0.5 μmol/kg (1 dose),0%
same,Toxicity Avg. Weight Loss,KB tumors; 0.5 μmol/kg (1 dose),>15%
same,Toxicity Deaths (%),KB tumors; 0.5 μmol/kg (1 dose),100%
same,toxicity in relation to anti-tumor effect in mice,"KB tumors; mouse, in vivo",dose-limiting toxicities in mice at levels that did not produce measurable anti-tumor effect
